Numbers after ± are expanded uncertainties.
How the values were obtained:
[1] = Molar enthalpy of transition or fusion; conditions: Crystal; DSC
[2] = Crystal; DSC

Molar enthalpy of transition or fusion [1]: 2.55 ± 0.0884 kcal/mol
Triple point temperature [2]: 402.15 ± 1 K
SMILES: C=NCC#N [methyleneaminoacetonitrile]
